Laboratory results from patent US20100179227A1, “Production method of hop preparation, hop preparation, anti-inflammatory agent, food product and beverage, and oral product” (priority 2006, published 2010).

Key:
mRNA of COX-2 gene = assay: Suppression of COX-2 mRNA expression in gingival epithelial cells stimulated with P. gingivalis vesicles (real-time RT-PCR); type: cell-based; conditions: human gingival epithelium-derived immortalized cells stimulated with P. gingivalis-derived vesicles; mRNA measured 24 hours after addition, standardized to GAPDH mRNA
Method: The expression levels of mRNA of COX-2 gene were determined.
The P. gingivalis-derived vesicles were prepared as follows: P. gingivalis strain (ATCC 33277) was cultured for 3 days and the cells were removed from the 500 ml culture by centrifugation and filtration. The supernatant was ultracentrifuged at 100,000 G at 4° C. for 1 hour to obtain the desired vesicles. The expression levels of mRNA of COX-2 gene were determined by measuring the amounts of mRNA by real-time RT-PCR 24 hours after addition of each substance. The PCR was performed by using primers specific for the COX-2 gene and amplification was carried out for 45 cycles. The amount of mRNA was standardized to the amount of mRNA of glyceraldehyde-3-phosphate dehydrogenase.
The 80% ethanol fraction obtained in Example 1 was fractionated by reverse-phase HPLC and the resulting fractions corresponding to the respective peaks were collected. As in Example 2, the fractions were incubated with human gingival epithelium-derived immortalized cells stimulated with the vesicles obtained from P. gingivalis (inflammation-inducing agent). The expression levels of mRNA of COX-2 were determined.

[1] = as described in Patent Documents 1, 2 and 5; cited from earlier work
cyclooxygenase-1 (COX-1) = cyclooxygenase-1 (COX-1) (Homo sapiens, UniProt P23219); conditions: according to Non-Patent Document 1; cited from earlier work
Sequence of cyclooxygenase-1 (COX-1) (P23219 24-599, species assumed): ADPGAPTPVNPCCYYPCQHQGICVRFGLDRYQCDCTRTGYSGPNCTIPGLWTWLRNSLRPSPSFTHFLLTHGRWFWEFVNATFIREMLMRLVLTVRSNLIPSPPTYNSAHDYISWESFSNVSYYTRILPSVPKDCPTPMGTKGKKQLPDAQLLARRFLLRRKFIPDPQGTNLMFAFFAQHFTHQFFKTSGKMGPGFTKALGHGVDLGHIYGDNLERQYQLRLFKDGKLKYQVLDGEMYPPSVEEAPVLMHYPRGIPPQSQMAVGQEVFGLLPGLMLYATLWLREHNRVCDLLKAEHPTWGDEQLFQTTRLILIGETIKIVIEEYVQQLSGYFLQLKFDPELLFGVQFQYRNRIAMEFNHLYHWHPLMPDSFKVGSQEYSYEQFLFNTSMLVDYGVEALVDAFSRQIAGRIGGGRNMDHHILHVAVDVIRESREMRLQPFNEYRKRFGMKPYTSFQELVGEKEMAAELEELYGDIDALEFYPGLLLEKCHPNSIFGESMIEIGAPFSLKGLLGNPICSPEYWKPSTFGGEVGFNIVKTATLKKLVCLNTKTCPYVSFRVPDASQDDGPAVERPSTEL

Structure (SMILES): O=c1c(O[C@@H]2O[C@H](CO)[C@@H](O)[C@H](O)[C@H]2O)c(-c2ccc(O)c(O)c2)oc2cc(O)cc(O)c12 [isoquercitrin, quercetin-3-O-β-D-glucopyranoside]
- suppression of the expression of mRNA of COX-2 gene (mRNA of COX-2 gene): activity
- anti-inflammatory activity [1]: exhibit anti-inflammatory activity

Structure (SMILES): O=c1c(O[C@@H]2O[C@H](CO)[C@@H](O)[C@H](O)[C@H]2O)c(-c2ccc(O)cc2)oc2cc(O)cc(O)c12 [astragalin, kaempferol-3-O-β-D-glucopyranoside]
- suppression of the expression of mRNA of COX-2 gene (mRNA of COX-2 gene): activity
- anti-inflammatory activity [1]: exhibit anti-inflammatory activity

Structure (SMILES): CC(C)C(=O)c1c(O)cc(O)cc1O[C@@H]1O[C@H](CO)[C@@H](O)[C@H](O)[C@H]1O [MPPG, 2-[(2-methylpropanyl)-phloroglucinol]-1-O-β-D-glucopyranoside]
- inhibition of cyclooxygenase-1 (COX-1) (cyclooxygenase-1 (COX-1)): inhibits cyclooxygenase-1 (COX-1)
- suppression of the expression of mRNA of COX-2 gene (mRNA of COX-2 gene): activity
